Assay results from patent US20060063784A1, “Method of using substituted pyrazolo [1,5-a] pyrimidines” (priority 2004, published 2006).
Where two headings read alike, the source gives them in different places.

Columns and labels:
[1] = test system: 80S14 (p21-deficient) cells; experiment: Cytotoxicity assay using isogenic cell lines: IC50 in 80S14 (p21-deficient) cells, SRB; type: cell-based, human; details: SRB
Procedure, shortened: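 IC50 is the concentration halving proliferation relative to untreated controls, read from SRB absorbance (560 nm) after TCA fixation. Test agent dilutions (5 pM–50 μM or 170 pg/ml–10 μg/ml) were left on p21-deficient 80S14 cells (12,000/well, pre-incubated overnight) for 5 days at 37 °C.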

[2] = test system: LoVo Colon cell line; experiment: Cytotoxicity assay using LoVo colon cell line, SRB; type: cell-based; details: 4 days incubation, SRB, read-out: Inhibition of LoVo
Procedure, shortened: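 Growth inhibition read by sulforhodamine B after 4-day compound exposure at 37 °C. Colon LoVo cells plated at 4000 per well in RPMI/10% FBS a day earlier; doses ranged 5 pM-20 μM or 170 pg/ml-10 μg/ml. IC50 is the concentration halving proliferation versus untreated wells.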

[3] = Homo sapiens, 120 h, 80S14 (p21-deficient) cells, 5 days, class symbols, read-out: IC50 for 80S14
[4] = Homo sapiens, 96 h, Cellular activity in LoVo cell
[5] = Homo sapiens, 120 h, 80S14 p21-deficient cells, 5 days incubation, read-out: IC50 for 80SI4
[6] = Homo sapiens, 96 h, LoVo colon cells
[7] = 80S14 (p21-deficient) cells, 5 days, class symbols, read-out: IC50 for 80S14

| Compound | IC50 [1, 3] [nM] | IC50 [2, 4] [nM] | further results |
| --- | --- | --- | --- |
| COc1ccccc1CNc1cccc(-c2ccnc3c(C(=O)c4cccs4)cnn23)c1 [Example 363, (7-{3-[(2-Methoxybenzyl)amino]phenyl}pyrazolo[1,5-a]pyrimidin-3-yl)(thien-2-yl)methanone] | 10000 to 50000 | 100 to 1000 |  |
| COCCN(CCOC)C(=O)Nc1cccc(-c2ccnc3c(C(=O)c4cccs4)cnn23)c1 [Example 168, N,N-bis(2-methoxyethyl)-N′-{3-[3-(thien-2-ylcarbonyl)pyrazolo[1,5-a]pyrimidin-7-yl]phenyl}urea] |  |  | IC50 [1, 5]: 10000 to 50000 nM; IC50 [2, 6]: 1000 to 2000 nM |
| O=C(Nc1cccc(-c2ccnc3c(C(=O)c4cccs4)cnn23)c1)c1ccccc1Cl [Example 95, 2-chloro-N-{3-[3-(thien-2-ylcarbonyl)pyrazolo[1,5-a]pyrimidin-7-yl]phenyl}benzamide] |  |  | IC50 [1, 5]: < 1000 nM; IC50 [2, 6]: < 100 nM |
| O=C(c1cccs1)c1cnn2c(-c3ccc(F)c(-c4ccc(CO)cc4)c3)ccnc12 [Example 455, {7-[6-Fluoro-4′-(hydroxymethyl)-1,1′-biphenyl-3-yl]pyrazolo[1,5-a]pyrimidin-3-yl}(thien-2-yl)methanone] | 1000 to 10000 | 100 to 1000 |  |
| CCCCNc1cccc(-c2ccnc3c(C(=O)c4cccs4)cnn23)c1 [Example 380, {7-[3-(Butylamino)phenyl]pyrazolo[1,5-a]pyrimidin-3-yl}(thien-2-yl)methanone] | < 1000 | < 100 |  |
| CN(C)Cc1ccc(-c2cccc(-c3ccnc4c(C(=O)c5cccs5)cnn34)c2)cc1 [Example 463, (7-{4′-[(Dimethylamino)methyl]-1,1′-biphenyl-3-yl}pyrazolo[1,5-a]pyrimidin-3-yl)(thien-2-yl)methanone] | < 1000 | < 100 |  |
| (7-{3-[1-(Pyridin-2-ylmethyl)-1H-pyrazol-3-yl]phenyl}pyrazolo[1,5-a]pyrimidin-3-yl)(thien-2-yl)methanone [Example 516] |  |  | IC50 [1, 7]: < 1000 nM; IC50 ([2]; Cellular activity in LoVo cell): < 100 nM |
| CCn1nnc(-c2cccc(-c3ccnc4c(C(=O)c5cccs5)cnn34)c2)n1 [Example 502, {7-[3-(2-Ethyl-2H-tetraazol-5-yl)phenyl]pyrazolo[1,5-a]pyrimidin-3-yl}(thien-2-yl)methanone] | 1000 to 10000 | 100 to 1000 |  |
| [7-[3-(2-Methyl-1H-imidazol-1-yl)phenyl]-pyrazolo[1,5-a]pyrimidin-3-vy]-2-thienyl-methanone [Example 245] |  |  | IC50 [1, 7]: 10000 to 50000 nM; IC50 ([2]; Cellular activity in LoVo cell): 1000 to 20000 nM |
| CC(C)OC(=O)Nc1cc(-c2ccnc3c(C(=O)c4cccs4)cnn23)ccc1N(C)C [Example 348, Isopropyl 2-(dimethylamino)-5-[3-(thien-2-ylcarbonyl)pyrazolo[1,5-a]pyrimidin-7-yl]phenylcarbamate] | 1000 to 10000 | 100 to 1000 |  |
| Cc1cc(C)cc(-c2cnn3c(-c4cccc(-c5nnn(Cc6ccccn6)n5)c4)ccnc23)c1 [Example 495, 3-(3,5-Dimethylphenyl)-7-{3-[2-(pyridin-2-ylmethyl)-2H-tetrazol-5-yl]phenyl}pyrazolo[1,5-a]pyrimidine] | 10000 to 50000 | 100 to 1000 |  |
| O=C(O)CCc1ccc(-c2cccc(-c3ccnc4c(C(=O)c5cccs5)cnn34)c2)cc1 [Example 457, 3-{3′-[3-(Thien-2-ylcarbonyl)pyrazolo[1,5-a]pyrimidin-7-yl]-1,1′-biphenyl-4-yl}propanoic acid] | 10000 to 50000 | 100 to 1000 |  |
| Thienylcarbonyl)pyrazolo[1,5-a]pyrimidin-7-yl]phenyl}cyclobutanecarboxamide [Example 275] |  |  | IC50 [1, 7]: < 1000 nM; IC50 ([2]; Cellular activity in LoVo cell): < 100 nM |
| N-{3-[3-(thien-2-ylcarbonyl)pyrazolo[1,5-a]pyrimidin-7-ylphenyl}morpholne-4-carboxamide [Example 157] |  |  | IC50 ([1]; 80S14 p21-deficient cells, 5 days incubation, read-out: IC50 for 80SI4): 1000 to 10000 nM; IC50 ([2]; LoVo colon cells): 100 to 1000 nM |
| CCCCNC(=S)Nc1cccc(-c2ccnc3c(C(=O)c4cccs4)cnn23)c1 [Example 364, N-Butyl-N′-{3-[3-(thien-2-ylcarbonyl)pyrazolo[1,5-a]pyrimidin-7-yl]phenyl}thiourea] | < 1000 | < 100 |  |
| CC(C)CC(=O)Nc1cccc(-c2ccnc3c(-c4cccc(CN5CCN(C)CC5)c4)cnn23)c1 [Example 489, 3-Methyl-N-[3-(3-{3-[(4-methylpiperazin-1-yl)methyl]phenyl}pyrazolo[1,5-a]pyrimidin-7-yl)phenyl]butanamide] | 1000 to 10000 | 1000 to 20000 |  |
| COc1cc(-c2cnn3c(-c4cccc(NC(=O)CC(C)C)c4)ccnc23)cc(OC)c1OC [Example 467, 3-Methyl-N-{3-[3-(3,4,5-trimethoxyphenyl)pyrazolo[1,5-a]pyrimidin-7-yl]phenyl}butanamide] | < 1000 | < 100 |  |

| Compound | IC50 [1, 3] [nM] | IC50 [2, 4] [nM] | further results |
| --- | --- | --- | --- |
| Cn1cccc1C(=O)Nc1cccc(-c2ccnc3c(C(=O)c4cccs4)cnn23)c1 [Example 387, 1-Methyl-N-{3-[3-(thien-2-ylcarbonyl)pyrazolo[1,5-a]pyrimidin-7-yl]phenyl}-1H-pyrrole-2-carboxamide] | < 1000 | < 100 |  |
| O=C(c1cccs1)c1cnn2c(-c3cccc(NC(=S)Nc4ccccc4)c3)ccnc12 [Example 334, N-Phenyl-N′-{3-[3-(thien-2-ylcarbonyl)pyrazolo[1,5-a]pyrimidin-7-yl]phenyl}thiourea] | < 1000 | 100 to 1000 |  |
| O=C(Nc1cccc(-c2ccnc3c(C(=O)c4cccs4)cnn23)c1)OCc1cccnc1 [Example 424, Pyridin-3-ylmethyl 3-[3-(thien-2-ylcarbonyl)pyrazolo[1,5-a]pyrimidin-7-yl]phenylcarbamate] | < 1000 | 1000 to 20000 |  |
| O=C(c1cccs1)c1cnn2c(-c3cccc(NC(=O)N4CCCC4)c3)ccnc12 [Example 170, N-{3-[3-(thien-2-ylcarbonyl)pyrazolo[1,5-a]pyrimidin-7-yl]phenyl}pyrrolidine-1-carboxamide] |  |  | IC50 [1, 5]: 1000 to 10000 nM; IC50 [2, 6]: 100 to 1000 nM |
| O=C(Nc1cccc(-c2ccnc3c(C(=O)c4cccs4)cnn23)c1)c1ccc(-n2cccc2)cc1 [Example 383, 4-(1H-pyrrol-1-yl)-N-{3-[3-(thien-2-ylcarbonyl)pyrazolo[1,5-a]pyrimidin-7-yl]phenyl}benzamide] | 1000 to 10000 | 100 to 1000 |  |
| Cc1cc(-c2cccc(NC(=O)C3CC3)c2)n2ncc(C(=O)c3cccs3)c2n1 [Example 276, N-{3-[5-Methyl-3-(2-thienylcarbonyl)pyrazolo[1,5-a]pyrimidin-7-yl]phenyl}cyclopropanecarboxamide] | < 1000 | < 100 |  |
| Nc1cc(-c2ccnc3c(C(=O)c4cccs4)cnn23)ccc1F [Example 352, [7-(3-Amino-4-fluorophenyl)pyrazolo[1,5-a]pyrimidin-3-yl](thien-2-yl)methanone] | 1000 to 10000 | 1000 to 20000 |  |
| CCOC(=S)Nc1cccc(-c2ccnc3c(C(=O)c4cccs4)cnn23)c1 [Example 332, O-Ethyl 3-[3-(thien-2-ylcarbonyl)pyrazolo[1,5-a]pyrimidin-7-yl]phenylthiocarbamate] | < 1000 | < 100 |  |
| O=C(c1cccs1)c1cnn2c(-c3ccc(F)c(N(C(=O)OCC(Cl)(Cl)Cl)C(=O)OCC(Cl)(Cl)Cl)c3)ccnc12 [Example 357, bis(2,2,2-Trichloroethyl) 2-fluoro-5-[3-(thien-2-ylcarbonyl)pyrazolo[1,5-a]pyrimidin-7-yl]phenylimidodicarbonate] | < 1000 | < 100 |  |
| O=C(Nc1cccc(-c2ccnc3c(C(=O)c4cccs4)cnn23)c1)c1cnccn1 [Example 385, N-{3-[3-(Thien-2-ylcarbonyl)pyrazolo[1,5-a]pyrimidin-7-yl]phenyl}pyrazine-2-carboxamide] | < 1000 | < 100 |  |
| O=C(Nc1cc(-c2ccnc3c(C(=O)c4cccs4)cnn23)ccc1F)c1ccncc1 [Example 388, N-{2-Fluoro-5-[3-(thien-2-ylcarbonyl)pyrazolo[1,5-a]pyrimidin-7-yl]phenyl}isonicotinamide] | < 1000 | < 100 |  |
| O=C(CC1CC1)Nc1cccc(-c2ccnc3c(C(=O)c4cccs4)cnn23)c1 [Example 72, 2-cyclopropyl-N-{3-[3-(thien-2-ylcarbonyl)pyrazolo[1,5-a]pyrimidin-7-yl]phenyl}acetamide] |  |  | IC50 [1, 5]: < 1000 nM; IC50 [2, 6]: 100 to 1000 nM |
| Cc1ccccc1CNc1cccc(-c2ccnc3c(C(=O)c4cccs4)cnn23)c1 [Example 377, (7-{3-[(2-Methylbenzyl)amino]phenyl}pyrazolo[1,5-a]pyrimidin-3-yl)(thien-2-yl)methanone] | 1000 to 10000 | 100 to 1000 |  |
| CCCCC(CC)CNc1cccc(-c2ccnc3c(C(=O)c4cccs4)cnn23)c1 (stereo not drawn) [Example 419, (7-{3-[(2-Ethylhexyl)amino]phenyl}pyrazolo[1,5-a]pyrimidin-3-yl)(thien-2-yl)methanone] | 1000 to 10000 | 1000 to 20000 |  |
| Cc1cc(C)cc(-c2cnn3c(-c4cccc(C#N)c4)ccnc23)c1 [Example 490, 3-[3-(3,5-Dimethylphenyl)pyrazolo[1,5-a]pyrimidin-7-yl]benzonitrile] | 10000 to 50000 | 1000 to 20000 |  |
| O=C(Nc1cccc(-c2ccnc3c(C(=O)c4cccs4)cnn23)c1)NC1CC1 [Example 169, N-cyclopropyl-N′-{3-[3-(thien-2-ylcarbonyl)pyrazolo[1,5-a]pyrimidin-7-yl]phenyl}urea] |  |  | IC50 [1, 5]: 1000 to 10000 nM; IC50 [2, 6]: 100 to 1000 nM |
